Tested on: PC-3-Luc prostate cancer xenograft
Experiment: PC-3-Luc prostate cancer xenograft model
Type: in vivo, BALB/c athymic nude mice
Conditions: γ-T3 50 mg/kg/day, Docetaxel 7.5 mg/kg/week; by day 14th after start of treatment; control 620±10
Protocol: 4.1.3 Establishment of the PC-3 prostate cancer xenograft model—Bioluminescent PC-3-Luc human prostate cancer cell line were generated according to known methods. Briefly, cDNA encoding the luciferase gene was cloned into the pLenti-6/V5. The construct was co-transfected with the packaging mix into HEK293 and lentivirus were collected and used for infecting PC-3 cells. Transfectants were obtained as a pool (PC-3-Luc) by selection with 10 μg/mL of Blasticidine for 1 week. The animal experimental protocol was approved by NACLAR (National Advisory Committee for Laboratory Animal Research) Guideline of Singapore for proper and humane use of animals. Male BALB/c athymic nude mice (4-5 weeks old, 18-22 g) were purchased from The Jackson Laboratory (Bar Harbor, Me., USA). […]
Nude mice bearing similar tumor sizes of about 100 mm^3 (after 2 weeks inoculation) were selected and randomly divided into three groups (n=5 per group); control (DMSO as vehicle), γ-T3 (50 mg/kg/d) and combination treatment of γ-T3 and Docetaxel (50 mg of γ-T3/kg/d and 7.5 mg of Docetaxel/kg/wk). The mice were weighed as daily basic and the tumors were measured using a Digital Carbon Fiber Caliper (Fisher scientific, Pittsburgh, Pa.) at the same time. The tumor volume was calculated as 4/3*π*(mean diameter/2)^3. […]

Q: How did the tumor volume turn out when `CC(C)=CCC/C(C)=C/CC/C(C)=C/CCC1(C)CCc2cc(O)c(C)c(C)c2O1` (stereo not shown) [γ-T3, 7,8-dimethyltocotrienol] was run?
A: 300±48 mm^3
